# Assay results published in US9951052B2, “Inhibitors of the renal outer medullary potassium channel” (Merck Sharp & Dohme Corp., priority 2013, dated 2018).
# Target: T1, hROMK (hKir1.1) (Homo sapiens, UniProt P48048)
# T1 construct: expressed in transfected cells
# T1 sequence (P48048 1-391): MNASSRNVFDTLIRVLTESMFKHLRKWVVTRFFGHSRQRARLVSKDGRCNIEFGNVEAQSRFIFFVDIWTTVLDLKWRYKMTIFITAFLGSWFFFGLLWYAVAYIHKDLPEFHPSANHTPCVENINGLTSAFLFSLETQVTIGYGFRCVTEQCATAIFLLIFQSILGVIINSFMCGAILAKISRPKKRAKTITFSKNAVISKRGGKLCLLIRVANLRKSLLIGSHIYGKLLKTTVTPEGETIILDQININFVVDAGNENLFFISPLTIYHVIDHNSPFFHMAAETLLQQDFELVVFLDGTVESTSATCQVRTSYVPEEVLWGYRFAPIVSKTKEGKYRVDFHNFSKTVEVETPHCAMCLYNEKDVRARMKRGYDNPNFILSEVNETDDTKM
# Test: Thallium Flux Assay (ROMK channel functional thallium flux, FLIPR-Tetra)
# Type: cell-based
# Conditions: HEK293 cells stably expressing hROMK (hKir1.1); 30 min incubation with compound; HCl salt run where final product was an HCl salt
# Experimental: The following Thallium Flux Assay was performed on each of the final product compounds in the Examples. When the final product of an Example was an HCl salt, the salt was run in the Assay.
# Cell Culture Conditions—HEK293 cells stably expressing hROMK (hKir1.1) were grown at 37° C. in a 10% CO2 humidified incubator in complete growth media: Dulbecco's Modified Eagle Medium supplemented with non-essential amino acids, Penicillin/Streptomycin/Glutamine, G418 and FBS. At >80% confluency, aspirate the media from the flask and rinse with 10 mL Calcium/Magnesium-free PBS. Add 5 mL of 1× trypsin (prepared in Ca/Mg Free PBS) to T-225 flask and return flask to 37° C./CO2 incubator for 2-3 minutes. To dislodge the cell, gently bang the side of the flask with your hand. Triturate the cells completely and then transfer the cells to 25 mL complete media. Centrifuge at 1,500 rpm for 6 min followed by resuspension in complete growth media and determine cell concentration. For typical re-seeding, 4E6 cells/T-225 flask will attain >80% confluency in 4 days. Under ideal growth conditions and appropriate tissue culture practices, this cell line is stable for 40-45 passages.
# FluxOR Kit Components (Invitrogen F10017)
# • FluxOR™ Reagent (Component A) • FluxOR™ Assay Buffer (Component B)—10× Concentrate • PowerLoad™ Concentrate (Component C)—100× Concentrate • Probenecid (Component D)—Lyophilized sample is kept at −20° C. Water soluble, 100× after solubilization in 1 mL water. Store at 4° C. • FluxOR™ Chloride-free Buffer (Component E)—5× Concentrate • Potassium sulfate (K2SO4) Concentrate (Component F)—125 mM in water. Store at 4° C. • Thallium sulfate (T12SO4) Concentrate (Component G)—50 mM in water. Store at 4° C. • DMSO (dimethyl sulfoxide, Component H)—1 mL (100%) Reagent Preparation: FluxOR Working Solutions • 1000× FluxOR™ Reagent: Reconstitute a vial of component A in 100 μl DMSO; Mix well; Store 10 μl aliquots at −20° C. • 1× FluxOR™ Assay Buffer: Dilute Component B 10-fold with water; Adjust pH to 7.4 with Hepes/NaOH; Filter and store at 4° C. • Probenecid/Assay Buffer: 100 mL of 1× FluxOR™ Assay Buffer; 1 mL of reconstituted component D; Store at 4° C. • Loading Buffer (per microplate): 10 μl 1000× FluxOR™ Reagent; 100 μl component C; 10 mL Probenecid/Assay Buffer • Compound Buffer (per microplate): 20 mL Probenecid/Assay Buffer; 0.3 mM ouabain (10 mM ouabain in water can be stored in amber bottle/aluminum foil at room temperature); Test compound • 1× FluxOR™ Chloride-Free Buffer: Prepare 1× working solution in water. Can be stored at room temperature • Stimulant Buffer (prepared at 5× final concentration in 1× FluxOR™ Chloride-Free Buffer): 7.5 mM Thallium sulfate and 0.75 mM Potassium sulfate (to give a final assay concentration of 3 mM Thallium/0.3 mM Potassium). Store at 4° C. when not in use.
# Assay protocol—The ROMK channel functional thallium flux assay is performed in 384 wells, using the FLIPR-Tetra instrument. HEK-hKir1.1 cells are seeded in Poly-D-Lysine microplates and kept in a 37° C.-10% CO2 incubator overnight. On the day of the experiment, the growth media is replaced with the FluxOR™ reagent loading buffer and incubated, protected from light, at ambient temperature (23-25° C.) for 90 min. The loading buffer is replaced with assay buffer±test compound followed by 30 min incubation at ambient temperature, where the Thallium/Potassium stimulant is added to the microplate.
# • 1. Seed HEK-hKir1.1 cells (50 μl at 20,000 cells/well) in 384-well PDL coated Microplates • 2. Allow cells to adhere overnight in humidified 37° C./10% CO2 incubator • 3. Completely remove cell growth media from microplate and replace with 25 μl loading buffer • 4. Incubate Microplate at room temperature, protected from light, for 90 min • 5. Remove loading buffer and replace with 25 μl 1× Assay Buffer±test compound. • 6. Incubate microplate at room temperature, protected from light, for 30 min • 7. […]
row,Compound,IC50 [nM]
1,"Cc1c([C@@H](O)CN2CCC(C(=O)Nc3ccc(-n4cccn4)cc3)CC2)ccc2c1COC2=O [Example 23, (R)-N-(4-(1H-pyrazol-1-yl)phenyl)-1-(2-hydroxy-2-(4-methyl-1-oxo-1,3-dihydroisobenzofuran-5-yl)ethyl)piperidine-4-carboxamide]",80
2,"Cc1c([C@@H](O)CN2CCC(C(=O)Nc3cccc(-n4cnnn4)c3)CC2)ccc2c1COC2=O [Example 24, (R)-N-(3-(1H-tetrazol-1-yl)phenyl)-1-(2-hydroxy-2-(4-methyl-1-oxo-1,3-dihydroisobenzofuran-5-yl)ethyl)piperidine-4-carboxamide]",90
3,"CCOc1cc(NC(=O)C2CCN(C[C@H](O)c3ccc4c(c3C)COC4=O)CC2)ccc1C#N [Example 25, (R)-N-(4-cyano-3-ethoxyphenyl)-1-(2-hydroxy-2-(4-methyl-1-oxo-1,3-dihydroisobenzofuran-5-yl)ethyl)piperidine-4-carboxamide]",180
4,"COc1cc(NC(=O)C2CCN(C[C@H](O)c3ccc4c(c3C)COC4=O)CC2)ccc1C#N [Example 26, (R)-N-(4-cyano-3-methoxyphenyl)-1-(2-hydroxy-2-(4-methyl-1-oxo-1,3-dihydroisobenzofuran-5-yl)ethyl)piperidine-4-carboxamide]",150
5,"Cc1c([C@@H](O)CN2CCC(C(=O)Nc3cnoc3)CC2)ccc2c1COC2=O [Example 27, (R)-1-(2-hydroxy-2-(4-methyl-1-oxo-1,3-dihydroisobenzofuran-5-yl)ethyl)-N-(isoxazol-4-yl)piperidine-4-carboxamide]",140
6,"Cc1c([C@@H](O)CN2CCC(C(=O)Nc3cnsc3)CC2)ccc2c1COC2=O [Example 28, (R)-1-(2-hydroxy-2-(4-methyl-1-oxo-1,3-dihydroisobenzofuran-5-yl)ethyl)-N-(isothiazol-4-yl)piperidine-4-carboxamide]",100
7,"Cc1c([C@@H](O)CN2CCC(C(=O)Nc3nc(C#N)cs3)CC2)ccc2c1COC2=O [Example 29, (R)-N-(4-cyanothiazol-2-yl)-1-(2-hydroxy-2-(4-methyl-1-oxo-1,3-dihydroisobenzofuran-5-yl)ethyl)piperidine-4-carboxamide]",240
8,"Cc1c([C@@H](O)CN2CCC(C(=O)Nc3snc4ccncc34)CC2)ccc2c1COC2=O [Example 30, (R)-1-(2-hydroxy-2-(4-methyl-1-oxo-1,3-dihydroisobenzofuran-5-yl)ethyl)-N-(isothiazolo[4,3-c]pyridin-3-yl)piperidine-4-carboxamide]",100
9,"Cc1nsc(NC(=O)C2CCN(C[C@H](O)c3ccc4c(c3C)COC4=O)CC2)n1 [Example 31, (R)-1-(2-hydroxy-2-(4-methyl-1-oxo-1,3-dihydroisobenzofuran-5-yl)ethyl)-N-(3-methyl-1,2,4-thiadiazol-5-yl)piperidine-4-carboxamide]",160

# More lines, now with the values ahead:
row,IC50 [nM],Compound
1,300,"Cc1c([C@@H](O)CN2CCC(C(=O)Nc3nc(C4CC4)ns3)CC2)ccc2c1COC2=O [Example 32, (R)-N-(3-cyclopropyl-1,2,4-thiadiazol-5-yl)-1-(2-hydroxy-2-(4-methyl-1-oxo-1,3-dihydroisobenzofuran-5-yl)ethyl)piperidine-4-carboxamide]"
2,170,"Cc1c([C@@H](O)CN2CCC(C(=O)Nc3ccc(-c4csnn4)cc3)CC2)ccc2c1COC2=O [Example 33, (R)-N-(4-(1,2,3-thiadiazol-4-yl)phenyl)-1-(2-hydroxy-2-(4-methyl-1-oxo-1,3-dihydroisobenzofuran-5-yl)ethyl)piperidine-4-carboxamide]"
3,340,"Cc1c([C@@H](O)CN2CCC(C(=O)Nc3cncc(F)c3)CC2)ccc2c1COC2=O [Example 34, (R)-N-(5-fluoropyridin-3-yl)-1-(2-hydroxy-2-(4-methyl-1-oxo-1,3-dihydroisobenzofuran-5-yl)ethyl)piperidine-4-carboxamide]"
4,420,"Cc1c([C@@H](O)CN2CCC(C(=O)Nc3ccncc3)CC2)ccc2c1COC2=O [Example 35, (R)-1-(2-hydroxy-2-(4-methyl-1-oxo-1,3-dihydroisobenzofuran-5-yl)ethyl)-N-(pyridin-4-yl)piperidine-4-carboxamide]"
5,120,"Cc1cc(NC(=O)C2CCN(C[C@H](O)c3ccc4c(c3C)COC4=O)CC2)sn1 [Example 36, (R)-1-(2-hydroxy-2-(4-methyl-1-oxo-1,3-dihydroisobenzofuran-5-yl)ethyl)-N-(3-methylisothiazol-5-yl)piperidine-4-carboxamide]"
6,110,"Cc1c([C@@H](O)CN2CCC(O)(C(=O)Nc3ccns3)CC2)ccc2c1COC2=O [Example 38, (R)-4-hydroxy-1-(2-hydroxy-2-(4-methyl-1-oxo-1,3-dihydroisobenzofuran-5-yl)ethyl)-N-(isothiazol-5-yl)piperidine-4-carboxamide]"
7,220,"Cc1cc(NC(=O)C2(O)CCN(C[C@H](O)c3ccc4c(c3C)COC4=O)CC2)sn1 [Example 39, (R)-4-hydroxy-1-(2-hydroxy-2-(4-methyl-1-oxo-1,3-dihydroisobenzofuran-5-yl)ethyl)-N-(3-methylisothiazol-5-yl)piperidine-4-carboxamide]"
8,420,"Cc1nsc(NC(=O)C2(O)CCN(C[C@H](O)c3ccc4c(c3C)COC4=O)CC2)n1 [Example 40, (R)-4-hydroxy-1-(2-hydroxy-2-(4-methyl-1-oxo-1,3-dihydroisobenzofuran-5-yl)ethyl)-N-(3-methyl-1,2,4-thiadiazol-5-yl)piperidine-4-carboxamide]"
9,10,"Cc1c([C@@H](O)CN2CCC(C(=O)N(C)c3ccns3)CC2)ccc2c1COC2=O [Example 41, 1-[(2R)-2-hydroxy-2-(4-methyl-1-oxo-1,3-dihydro-2-benzofuran-5-yl)ethyl]-N-(isothiazol-5-yl)-N-methylpiperidine-4-carboxamide]"
10,20,"Cl.[2H]C([2H])([2H])N(C(=O)C1CCN(C[C@H](O)c2ccc3c(c2C)COC3=O)CC1)c1ccns1 [Example 42, 1-[(2R)-2-hydroxy-2-(4-methyl-1-oxo-1,3-dihydro-2-benzofuran-5-yl)ethyl]-N-(isothiazol-5-yl)-N-trideuteromethylpiperidine-4-carboxamide]"
11,50,"CCN(C(=O)C1CCN(C[C@H](O)c2ccc3c(c2C)COC3=O)CC1)c1ccns1 [Example 43, (R)-N-ethyl-1-(2-hydroxy-2-(4-methyl-1-oxo-1,3-dihydroisobenzofuran-5-yl)ethyl)-N-(isothiazol-5-yl)piperidine-4-carboxamide]"
12,20,"Cc1cc(N(C)C(=O)C2CCN(C[C@H](O)c3ccc4c(c3C)COC4=O)CC2)sn1 [Example 44, (R)-1-(2-hydroxy-2-(4-methyl-1-oxo-1,3-dihydroisobenzofuran-5-yl)ethyl)-N-methyl-N-(3-methylisothiazol-5-yl)piperidine-4-carboxamide]"
